# Results reported in patent US20260199255A1, “LIPID COMPOUNDS AND METHODS OF MAKING AND USE THEREOF” (Ohio State Innovation Foundation, priority 2022, published 2026).
# Assays:
# Assay type in all cases: cell-based
# [1] = test system: Hep3B cell line; experiment: luciferase mRNA delivery in the Hep3B cell line (in vitro LNP screening); conditions: LNPs of bile acid derived lipid, DOPE, cholesterol and DMG-PEG; mRNA-encoding firefly luciferase; Hep3B cell line (FIG. 2)
# Procedure: (§1) Lipid nanoparticles (LNPs) with synthesized bile acid derived lipids, DOPE, cholesterol and DMG-PEG were prepared and screened in various cell lines using mRNA-encoding firefly luciferase (FIGS. 2-4).
# [2] = test system: JAWS2 cell line; experiment: luciferase mRNA delivery in the JAWS2 cell line (in vitro LNP screening); conditions: LNPs of bile acid derived lipid, DOPE, cholesterol and DMG-PEG; mRNA-encoding firefly luciferase; JAWS2 cell line (FIG. 3)
# Procedure: as §1
# [3] = test system: C2C12 cell line; experiment: luciferase mRNA delivery in the C2C12 cell line (in vitro LNP screening); conditions: LNPs of bile acid derived lipid, DOPE, cholesterol and DMG-PEG; mRNA-encoding firefly luciferase; C2C12 cell line (FIG. 4)
# Procedure: as §1
Compound,mRNA delivery efficiency [1],mRNA delivery efficiency [2],mRNA delivery efficiency [3]
CCCCCCCCCCCCN(CCCCCCCCCCCC)CCCCCCNC(=O)CC[C@@H](C)[C@H]1CC[C@H]2[C@@H]3CC[C@@H]4C[C@H](O)CC[C@]4(C)[C@H]3C[C@H](O)[C@]12C [BAL6],more effective mRNA delivery efficiency than other LNPs,–,–
CCCCCCCCCCCCN(CCCCCCCCCCCC)CCN(CCCCCCCCCCCC)CCNC(=O)CC[C@@H](C)[C@H]1CC[C@H]2[C@@H]3CC[C@@H]4C[C@H](O)CC[C@]4(C)[C@H]3C[C@H](O)[C@]12C [BAL7],–,high mRNA delivery efficiency,high mRNA delivery efficiency
CCCCCCCCCCCCN(CCCCCCCCCCCC)CCN(CCCCCCCCCCCC)CCNC(=O)CC[C@@H](C)[C@H]1CC[C@H]2[C@@H]3[C@H](O)C[C@@H]4C[C@H](O)CC[C@]4(C)[C@H]3CC[C@]12C [BAL11],–,high mRNA delivery efficiency,high mRNA delivery efficiency
